For orientation: MIC means the least concentration at which growth counts as inhibited. Low readings indicate inhibition by little substance, high ones a need for much substance. As a reminder, the minimal effective concentration is the lowest level tested that produced the effect sought. A higher minimal effective concentration goes with weaker potency.

Consider 22 molecules from patent publication US11512079B2, “Heterocycle substituted pyridine derivative antifungal agents” (Amplyx Pharmaceuticals, Inc., priority 2017, dated 2022).

Type in all cases: cell-based
In one test the test system is Candida albicans 90028. The test can be described thus: In vitro antifungal assay (Example IX), microdilution broth, MIC. The note with it: minimum inhibitory concentration (≥50% inhibition), 35° C., 40-48 h, RPMI1640. Summed up:
(§1)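 CLSI broth microdilution in RPMI1640 with 2.5×10^3 cells/mL and final compound concentrations of 2-0.0019 μg/mL (1% DMSO). C. albicans 90028 plates were incubated at 35° C. for 40-48 h and C. neoformans H99 for 72 h. MIC was read as minimum inhibitory concentration, verified at 600 nm.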

Test [1] deals with Cryptococcus neoformans H99. The description is as above. To be noted: minimum inhibitory concentration (≥50% inhibition), 35° C., 72 h, RPMI1640. An outline of the steps: as §1
Test [2] has as its system Aspergillus fumigatus MYA3626. The test can be described thus: In vitro antifungal assay (Example IX), microdilution broth, MEC. The note with it: minimum effective concentration (shortening of hyphae), 35° C., 40-48 h, RPMI1640. An outline of the steps: (§2)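 Spore suspensions of A. fumigatus and R. pusillus adjusted to 1-2×10^4 spores/mL in RPMI1640 and exposed to compound dilutions prepared in DMSO, by broth microdilution. MEC taken as the lowest concentration shortening hyphae versus DMSO control wells, read as for echinocandins.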

In test [3] the test system is Rhizomucor pusillus 46342. The description is as above. The note with it: minimum effective concentration (shortening of hyphae), 35° C., 40-48 h, RPMI1640. An outline of the steps:
as §2

Another test has as its system Cryptococcus gattii. Nature of the test: In vitro antifungal assay (Example IX), microdilution broth, MIC. To be noted: minimum inhibitory concentration (≥50% inhibition), 35° C., 72 h (Cryptococcus), RPMI1640. Summed up:
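Broth microdilution in RPMI1640 with 2.5×10^3 cells/mL inoculum; final compound concentrations were 2–0.0019 μg/mL, with 1% DMSO. Cryptococcus plates were incubated at 35 °C for 72 h, and growth was read at 600 nm to give the MIC.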
For orientation: Dilution methods test growth across graded concentrations, often in twofold steps.

≈ marks a conversion by molar mass, not a printed value. Bounds are passed on as bounds.

For the molecule `Nc1ncccc1-c1cc(Cc2ccc(Sc3ccccc3)nc2)no1` [compound 186, 3-(3-((6-(phenylthio)pyridin-3-yl)methyl)isoxazol-5-yl)pyridin-2-amine], the MIC is 0.01 to 0.1 µg/mL (≈ 0.0277 to 0.277 µM) against Candida albicans 90028, 0.1 to 1 µg/mL (≈ 0.277 to 2.77 µM) in test [1] and 0.01 to 0.1 µg/mL (≈ 0.0277 to 0.277 µM) in the test on Cryptococcus gattii. Besides, the minimal effective concentration in test [2] is 0.01 to 0.1 µg/mL; in test [3], more than 1 µg/mL.
For `Nc1ncccc1-c1cc(Cc2ccc(OCCn3cncn3)nc2)no1` [compound 202, 3-(3-((6-(2-(1H-1,2,4-triazol-1-yl)ethoxy)pyridin-3-yl)methyl)isoxazol-5-yl)pyridin-2-amine], the MIC (against Candida albicans 90028; in test [1]; with Cryptococcus gattii) was more than 1 µg/mL in each case. Further, the minimal effective concentration in test [2] and in test [3] was more than 1 µg/mL throughout.
Consider `Nc1ncccc1-c1cc(Cc2ccc(CCc3ccccc3)cc2)no1` [compound 18, 3-(3-(4-phenethylbenzyl)isoxazol-5-yl)pyridin-2-amine], for which the minimal inhibitory concentration (MIC) in the test on Candida albicans 90028 lay in the range of 0.01 to 0.1 µg/mL (≈ 0.0281 to 0.281 µM); in test [1] it was 0.1 to 1 µg/mL (≈ 0.281 to 2.81 µM); in the test with Cryptococcus gattii it was 0.1 to 1 µg/mL (≈ 0.281 to 2.81 µM). Moreover, the minimal effective concentration in test [2] lay within 0.01 to 0.1 µg/mL; in test [3], 0.1 to 1 µg/mL.
As to `Nc1ncccc1-c1cc(Cc2ccc(Oc3ccccc3)nc2)no1` [Example 143, 3-(3-((6-phenoxypyridin-3-yl)methyl)isoxazol-5-yl)pyridin-2-amine], the MIC in the test on Candida albicans 90028 is 0.1 to 1 µg/mL (≈ 0.29 to 2.9 µM); in test [1], 0.01 to 0.1 µg/mL (≈ 0.029 to 0.29 µM); with Cryptococcus gattii it was not above 0.01 µg/mL. The values for the minimal effective concentration in test [2] and in test [3] were 0.01 to 0.1 µg/mL and 0.1 to 1 µg/mL, respectively.
Take `Cc1csc(COc2ccc(Cc3cc(-c4cccnc4N)on3)cn2)n1` [compound 82, 3-(3-((6-((4-methylthiazol-2-yl)methoxy)pyridin-3-yl)methyl)isoxazol-5-yl)pyridin-2-amine]: the MIC in the test on Candida albicans 90028 lay in the range of 0.1 to 1 µg/mL (≈ 0.264 to 2.64 µM); in test [1] it was 0.01 to 0.1 µg/mL (≈ 0.0264 to 0.264 µM); in the test with Cryptococcus gattii it was 0.01 to 0.1 µg/mL (≈ 0.0264 to 0.264 µM). In addition, the minimal effective concentration in test [2] is 0.01 to 0.1 µg/mL; in test [3], more than 1 µg/mL.
With `Nc1ccc(-c2cc(Cc3ccc(CNc4ccccc4)cc3)no2)c(N)n1` [compound 136, 3-(3-(4-((phenylamino)methyl)benzyl)isoxazol-5-yl)pyridine-2,6-diamine], the MIC (against Candida albicans 90028; in test [1]; in the test on Cryptococcus gattii) was 0.1 to 1 µg/mL (≈ 0.269 to 2.69 µM) each time. Also, the minimal effective concentration in test [2] and in test [3] was 0.01 to 0.1 µg/mL each time.
For `Nc1ncccc1-c1cc(Cc2ccc(OCc3ccc(F)cc3)nc2)no1` [compound 187, 3-(3-((6-((4-fluorobenzyl)oxy)pyridin-3-yl)methyl)isoxazol-5-yl)pyridin-2-amine], the results for the MIC (in the test on Candida albicans 90028; in test [1]; against Cryptococcus gattii) were 0.1 to 1 µg/mL (≈ 0.266 to 2.66 µM), 0.1 to 1 µg/mL (≈ 0.266 to 2.66 µM) and 0.01 to 0.1 µg/mL (≈ 0.0266 to 0.266 µM), respectively. Also, the minimal effective concentration in test [2] and in test [3] was 0.1 to 1 µg/mL each time.
Consider `Nc1ncccc1-c1cc(Cc2ccc(OCc3ccc(F)cn3)nc2)no1` [compound 51, 3-(3-((6-((5-fluoropyridin-2-yl)methoxy)pyridin-3-yl)methyl)isoxazol-5-yl)pyridin-2-amine], for which the MIC (in the test with Candida albicans 90028; in test [1]; with Cryptococcus gattii) was 0.1 to 1 µg/mL (≈ 0.265 to 2.65 µM) throughout. The minimal effective concentration is 0.01 to 0.1 µg/mL in test [2] and 0.1 to 1 µg/mL in test [3].
Take `Nc1ncccc1-c1cc(Cc2ccc(Cn3cnnc3)cc2)no1` [compound 200, 3-(3-(4-((4H-1,2,4-triazol-4-yl)methyl)benzyl)isoxazol-5-yl)pyridin-2-amine]: the MIC (with Candida albicans 90028; in test [1]; against Cryptococcus gattii) was more than 1 µg/mL throughout. Further, the minimal effective concentration in test [2] and in test [3] was more than 1 µg/mL throughout.
In the case of `Nc1ncccc1-c1cc(Cc2ccc(CNc3cccc(F)c3F)cc2)no1` [compound 108, 3-(3-(4-(((2,3-difluorophenyl)amino)methyl)benzyl)isoxazol-5-yl)pyridin-2-amine], the results for the MIC (against Candida albicans 90028; in test [1]; against Cryptococcus gattii) were 0.01 to 0.1 µg/mL (≈ 0.0255 to 0.255 µM), 0.1 to 1 µg/mL (≈ 0.255 to 2.55 µM) and 0.1 to 1 µg/mL (≈ 0.255 to 2.55 µM), respectively. Moreover, the values for the minimal effective concentration in test [2] and in test [3] were 0.01 to 0.1 µg/mL and 0.1 to 1 µg/mL, respectively.
For the molecule `Nc1ncccc1-c1cc(Cc2ccc(Nc3c(F)cccc3F)nc2)no1` [compound 237, 5-((5-(2-aminopyridin-3-yl)isoxazol-3-yl)methyl)-N-(2,6-difluorophenyl)pyridin-2-amine], the MIC (against Candida albicans 90028; in test [1]; in the test with Cryptococcus gattii) was 0.01 to 0.1 µg/mL (≈ 0.0264 to 0.264 µM) throughout. Also, the minimal effective concentration in test [2] was 0.1 to 1 µg/mL; in test [3] it was more than 1 µg/mL.
Turning to `Nc1ncccc1-c1cc(Cc2ccc(OCc3nccs3)cc2)no1` [compound 112, 3-(3-(4-(thiazol-2-ylmethoxy)benzyl)isoxazol-5-yl)pyridin-2-amine], the minimal inhibitory concentration (MIC) is 0.1 to 1 µg/mL (≈ 0.274 to 2.74 µM) in the test with Candida albicans 90028, 0.01 to 0.1 µg/mL (≈ 0.0274 to 0.274 µM) in test [1] and 0.01 to 0.1 µg/mL (≈ 0.0274 to 0.274 µM) against Cryptococcus gattii. The minimal effective concentration in test [2] was 0.01 to 0.1 µg/mL; in test [3], 0.1 to 1 µg/mL.
Turning to `Nc1ncccc1-c1cc(Cc2ccc(OCc3ccncc3F)nc2)no1` [compound 54, 3-(3-((6-((3-fluoropyridin-4-yl)methoxy)pyridin-3-yl)methyl)isoxazol-5-yl)pyridin-2-amine], the MIC with Candida albicans 90028 is 0.01 to 0.1 µg/mL (≈ 0.0265 to 0.265 µM); in test [1], 0.01 to 0.1 µg/mL (≈ 0.0265 to 0.265 µM); with Cryptococcus gattii, not above 0.01 µg/mL. The minimal effective concentration in test [2] is 0.01 to 0.1 µg/mL; in test [3] it was more than 1 µg/mL.
As for `Nc1ncccc1-c1cc(Cc2ccc(OCc3ncco3)nc2)no1` [compound 53, 3-(3-((6-(oxazol-2-ylmethoxy)pyridin-3-yl)methyl)isoxazol-5-yl)pyridin-2-amine], the MIC (with Candida albicans 90028; in test [1]; against Cryptococcus gattii) was 0.1 to 1 µg/mL (≈ 0.286 to 2.86 µM) throughout. For the same molecule, the minimal effective concentration in test [2] and in test [3] was 0.1 to 1 µg/mL in each case.
Regarding `Nc1ncccc1-c1cc(Cc2ccc(Cc3cn[nH]c3)cc2)no1` [compound 10, 3-(3-(4-((1H-pyrazol-4-yl)methyl)benzyl)isoxazol-5-yl)pyridin-2-amine], the MIC (against Candida albicans 90028; in test [1]; in the test on Cryptococcus gattii) was 0.1 to 1 µg/mL (≈ 0.302 to 3.02 µM) each time. Further, the figures for the minimal effective concentration in test [2] and in test [3] were 0.1 to 1 µg/mL and more than 1 µg/mL, respectively.
Consider `Nc1ncccc1-c1cc(Cc2ccc(Cc3ccccc3)cc2)no1` [compound 8, 3-(3-(4-benzylbenzyl)isoxazol-5-yl)pyridin-2-amine], for which the minimal inhibitory concentration (MIC) against Candida albicans 90028 is 0.1 to 1 µg/mL (≈ 0.293 to 2.93 µM); in test [1] it was 0.01 to 0.1 µg/mL (≈ 0.0293 to 0.293 µM); in the test with Cryptococcus gattii it was not above 0.01 µg/mL. In addition, the minimal effective concentration in test [2] and in test [3] was 0.1 to 1 µg/mL throughout.
On to `COc1cc(F)cc(Cc2ccc(Cc3cc(-c4cccnc4N)on3)cc2)c1` [compound 216, 3-(3-(4-(3-fluoro-5-methoxybenzyl)benzyl)isoxazol-5-yl)pyridin-2-amine], for which the MIC (with Candida albicans 90028; in test [1]; in the test with Cryptococcus gattii) was 0.1 to 1 µg/mL (≈ 0.257 to 2.57 µM) in each case. In addition, the values for the minimal effective concentration in test [2] and in test [3] were 0.1 to 1 µg/mL and more than 1 µg/mL, respectively.
On to `Nc1ncccc1-c1cc(Cc2ccc(C(=O)c3ccccc3)cc2)no1` [compound 191, (4-((5-(2-aminopyridin-3-yl)isoxazol-3-yl)methyl)phenyl)(phenyl)methanone], for which the MIC (in the test on Candida albicans 90028; in test [1]; in the test with Cryptococcus gattii) was 0.1 to 1 µg/mL (≈ 0.281 to 2.81 µM) in each case. Also, the minimal effective concentration lay within 0.01 to 0.1 µg/mL in test [2] and 0.1 to 1 µg/mL in test [3].
With `Nc1ncccc1-c1cc(Cc2ccc(OCc3cncc(F)c3)cc2)no1` [compound 115, 3-(3-(4-((5-fluoropyridin-3-yl)methoxy)benzyl)isoxazol-5-yl)pyridin-2-amine], the MIC (in the test with Candida albicans 90028; in test [1]; against Cryptococcus gattii) was 0.1 to 1 µg/mL (≈ 0.266 to 2.66 µM) each time. Besides, the values for the minimal effective concentration in test [2] and in test [3] were 0.01 to 0.1 µg/mL and more than 1 µg/mL, respectively.
As to `Nc1ncccc1-c1cc(Cc2ccc(OCc3ncccn3)nc2)no1` [compound 46, 3-(3-((6-(pyrimidin-2-ylmethoxy)pyridin-3-yl)methyl)isoxazol-5-yl)pyridin-2-amine], the MIC (in the test on Candida albicans 90028; in test [1]; with Cryptococcus gattii) was 0.1 to 1 µg/mL (≈ 0.277 to 2.77 µM) throughout. Moreover, the minimal effective concentration was 0.1 to 1 µg/mL in test [2] and more than 1 µg/mL in test [3].
Take `Nc1ncccc1-c1cc(Cc2ccc(OCc3ccccn3)cc2)no1` [Example 140, 3-(3-(4-(pyridin-2-ylmethoxy)benzyl)isoxazol-5-yl)pyridin-2-amine]: the MIC in the test on Candida albicans 90028 is not above 0.01 µg/mL; in test [1], 0.01 to 0.1 µg/mL (≈ 0.0279 to 0.279 µM); against Cryptococcus gattii, 0.01 to 0.1 µg/mL (≈ 0.0279 to 0.279 µM). For the same molecule, the minimal effective concentration in test [2] is 0.01 to 0.1 µg/mL; in test [3] it was 0.1 to 1 µg/mL.
On to `Nc1ncccc1-c1cc(Cc2ccc(CNc3ccnc(F)c3)cc2)no1` [compound 70, 3-(3-(4-(((2-fluoropyridin-4-yl)amino)methyl)benzyl)isoxazol-5-yl)pyridin-2-amine], for which the minimum inhibitory concentration (MIC) (with Candida albicans 90028; in test [1]; against Cryptococcus gattii) was 0.1 to 1 µg/mL (≈ 0.266 to 2.66 µM) in each case. Also, the minimal effective concentration was 0.01 to 0.1 µg/mL in test [2] and more than 1 µg/mL in test [3].
